Assays:
House Fly [1] = assay: Housefly (Contact) Test; type: in vivo, Musca domestica (Diptera); settings: 24 h
Description: Rearing cages containing four-day old adult house flies are chilled at 35°-40° F. for about 1 hour. One hundred flies are transferred from the rearing cage to each test cage using a small scoop. The caged flies are kept for 1-2 hours at 70°-80° F. The cages are sprayed in the same manner as described for the milkweed bug with 5 ml. of the test formulation. Two unsprayed cages are held as controls and two cages are sprayed with a 50 ppm DDT formulation as a reference standard. Mortality counts are made 24 hours after spraying. […] The same rating scale is employed as heretofore.

Picnic Beetle [2] = assay: Field trial (first summer), stomach; type: in vivo; settings: 250 ppm
Description: Leaves from the infested plant are treated with different concentrations of the test compounds, either by spraying with a DeVilbiss Special Atomizer (5004) at 10 psi or by dipping the leaves in solutions containing the compound. The leaves are then allowed to air dry.
After the leaves have dryed, they are placed in plastic petri dishes (100 × 25 mm), then the insects are counted out into each dish, five or ten insects per dish depending on the number of insects available. There are one or two replicates and usually two or three rates with each compound. Mortality results are taken at 24, 48 and 72 hours. The rating scale is 0 to 9.
(§1) During the previous summer similar field trials were conducted employing the same tests as heretofore but with some additional species of insects not included in the later tests. The results listed below are for tests in which an insect mortality was established by a given application route and at a given concentration in a particular test. The same 0 - 9 scoring system is used as is the designation of compounds by alphabetical symbols.

[3] = test system: Two-Spotted Spider Mite (2-SSM); assay: Miticide test, acute mortality, foliar spray; type: in vivo, Tetranychus urticae
Description: Each 5 mg. sample of technical compound preweighed at Greenfield was dissolved in 2.5 ml. of acetone and diluted with 247.5 ml. of water containing a combination of […]
The treated cuttings were stored in the greenhouse for 24 hours before evaluation under a binocular disecting microscope in the laboratory. In evaluating the results of the miticide test, each treated cutting was removed from the test tube, observed for live and dead mites at 14 × magnification, and returned immediately to the test tube. A scale of 0-9 was used as before.
The test employing two-spotted spider mites was conducted in similar fashion except that the mites were maintained on squash seedlings or squash cuttings.

Milkweed Beetle = assay: Field trial (first summer), contact; type: in vivo; settings: 125 ppm
Description: (§2) Infested plants are placed in 6 oz. prescription bottles filled with water to keep them from wilting. Cellucotton is wrapped around the plant stem and squeezed into the bottle neck to prevent the insects from drowning.
(§3) A DeVilbiss Special Atomizer (5004) is used at 10 psi to spray the test plant with different concentrations of compounds. The atomizer is held at arm's length to prevent blowing the insects off the host plant. After treating, the bottles are placed on a table covered with brown wrapping paper to catch the dead insects as they drop from the plant. The plants are spaced so the leaves or plants are not touching one another.
(§4) The results are read at 24, 48, and 72 hours when applicable. The rating scale is 0 to 9 where 0 = 0-10 percent and 9 = 91-100 percent mortality.
as §1

Picnic Beetle [4] = assay: Field trial (first summer), contact; type: in vivo; settings: 250 ppm
Description: as §2, §3, §4, §1

Eastern Tent Caterpillar [5] = assay: Field trial, contact poison test; type: in vivo
Summary of the method: (§5)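 Contact spray, atomizer 10 psi, arm's length, several concentrations; infested plants in water bottles, stems wrapped in cellucotton, plants spaced apart. Scored 24, 48, 72 h; scale 0–9 by percent mortality.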

Walnut Caterpillar [6] = assay: Field trial, contact poison test; type: in vivo
Summary of the method: as §5

Elm Leaf Beetle [7] = assay: Field trial, contact poison test; type: in vivo
Summary of the method: as §5

Armyworm, P. Unipuncta [8] = assay: Field trial, contact poison test; type: in vivo
Summary of the method: as §5

Eastern Tent Caterpillar [9] = assay: Field trial, topical application; type: in vivo
Summary of the method: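 1 μL benzimidazole solution of set microgram content applied topically to larvae or adults. Mortality read at 24, 48 and 72 h where applicable, rated 0-9 (0 = 0-10%, 9 = 91-100%); values are average mortality per concentration.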

[10] = test system: Red-Legged Grasshopper Adults; assay: Field trial, stomach poison test; type: in vivo
Summary of the method: (§6)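 Leaves from infested plants sprayed (10 psi) or dipped in test compound at several concentrations, air-dried, then five or ten insects placed per dish, one or two replicates. Mortality scored 0 to 9 at 24, 48 and 72 h, averaged per concentration.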

Eastern Tent Caterpillar [11] = assay: Field trial, stomach poison test; type: in vivo
Summary of the method: as §6

Walnut Caterpillar [12] = assay: Field trial, stomach poison test; type: in vivo
Summary of the method: as §6

Bagworms = assay: Field trial, stomach poison test; type: in vivo
Summary of the method: as §6

Elm Leaf Beetle [13] = assay: Field trial, stomach poison test; type: in vivo
Summary of the method: as §6

Armyworm, P. Unipuncta [14] = assay: Field trial, stomach poison test; type: in vivo
Summary of the method: as §6

House Fly [15] = assay: Housefly (Stomach) Test; type: in vivo, Musca domestica (Diptera); settings: 24 h
Description: Ten chilled house flies are taken from the rearing cage and placed in a covered petri dish. Sugar cubes treated with 0.2 ml. of a formulation containing a specified level of the insecticide are placed in the petri dish one hour after the flies have been removed from the chill room. Controls consist of sugar cubes treated with 0.2 ml. of deionized water and cubes treated with 0.2 ml. of a formulation containing 500 ppm of malathion. Mortality counts are made 24 hours later. The same rating scale is used as before.

For CCCCCCOC(=O)n1c(C(F)(F)F)nc2c([N+](=O)[O-])cc(C(F)(F)F)cc21 [E, n-hexyl 2,6-bis(trifluoromethyl)-4-nitro-1-benzimidazolecarboxylate], the mortality rating (House Fly [1]; 10 ppm) was 4.5, the mortality rating (House Fly [1]; 50 ppm) was 1.5 and the insect mortality rating (Picnic Beetle [2]) was 9 (91-100 percent mortality). For the same compound, the acute mortality rating ([3]; 6.25 ppm) was 3, the acute mortality rating ([3]; 12.5 ppm) was 2 and the acute mortality rating ([3]; 25 ppm) was 5. For the same compound, the acute mortality rating ([3]; 50 ppm) was 9 (91-100 percent mortality), the acute mortality rating ([3]; 100 ppm) was 9 (91-100 percent mortality) and the insect mortality rating (Milkweed Beetle) was 9 (91-100 percent mortality). For the same compound, the insect mortality rating (Picnic Beetle [4]) was 9 (91-100 percent mortality).

CC(C)OC(=O)n1c(C(F)(F)F)nc2c([N+](=O)[O-])cc(C(F)(F)F)cc21 [I, isopropyl 2,6-bis(trifluoromethyl)-4-nitro-1-benzimidazolecarboxylate] was tested, and the average mortality rating (Eastern Tent Caterpillar [5]; 50 ppm) was 0 (0-10 percent), the average mortality rating (Eastern Tent Caterpillar [5]; 100 ppm) was 1 and the average mortality rating (Eastern Tent Caterpillar [5]; 250 ppm) was 3. The average mortality rating (Eastern Tent Caterpillar [5]; 500 ppm) was 6, the average mortality rating (Eastern Tent Caterpillar [5]; 1000 ppm) was 5 and the average mortality rating (Walnut Caterpillar [6]; 25 ppm) was 0 (0-10 percent). It also gave an average mortality rating (Walnut Caterpillar [6]; 50 ppm) of 1, an average mortality rating (Walnut Caterpillar [6]; 100 ppm) of 2 and an average mortality rating (Walnut Caterpillar [6]; 250 ppm) of 3. For the same compound, the average mortality rating (Elm Leaf Beetle [7]; 250 ppm) was 1, the average mortality rating (Elm Leaf Beetle [7]; 500 ppm) was 1 and the average mortality rating (Elm Leaf Beetle [7]; 1000 ppm) was 1. For the same compound, the average mortality rating (Armyworm, P. Unipuncta [8]; 125 ppm) was 0 (0-10 percent), the average mortality rating (Armyworm, P. Unipuncta [8]; 250 ppm) was 0 (0-10 percent) and the average mortality rating (Armyworm, P. Unipuncta [8]; 500 ppm) was 0 (0-10 percent). The average mortality rating (Eastern Tent Caterpillar [9]; 0.3 μg/μl) was 0 (0-10 percent), the average mortality rating (Eastern Tent Caterpillar [9]; 0.6 μg/μl) was 1 and the average mortality rating (Eastern Tent Caterpillar [9]; 1.2 μg/μl) was 2. For the same compound, the acute mortality rating ([3]; 6.25 ppm) was 3, the acute mortality rating ([3]; 12.5 ppm) was 2 and the acute mortality rating ([3]; 25 ppm) was 8. For the same compound, the acute mortality rating ([3]; 50 ppm) was 8, the acute mortality rating ([3]; 100 ppm) was 8 and the average mortality rating ([10]; 10 ppm) was 0 (0-10 percent). The average mortality rating ([10]; 25 ppm) was 4, the average mortality rating ([10]; 50 ppm) was 4 and the average mortality rating (Eastern Tent Caterpillar [11]; 250 ppm) was 0 (0-10 percent). For the same compound, the average mortality rating (Eastern Tent Caterpillar [11]; 500 ppm) was 0 (0-10 percent), the average mortality rating (Eastern Tent Caterpillar [11]; 1000 ppm) was 0 (0-10 percent) and the average mortality rating (Walnut Caterpillar [12]; 50 ppm) was 0 (0-10 percent). The average mortality rating (Walnut Caterpillar [12]; 100 ppm) was 1, the average mortality rating (Walnut Caterpillar [12]; 250 ppm) was 2 and the average mortality rating (Bagworms; 500 ppm) was 1. The average mortality rating (Bagworms; 750 ppm) was 0 (0-10 percent), the average mortality rating (Bagworms; 1000 ppm) was 1 and the average mortality rating (Bagworms; 1500 ppm) was 0 (0-10 percent). For the same compound, the average mortality rating (Bagworms; 2500 ppm) was 1, the average mortality rating (Bagworms; 5000 ppm) was 1 and the average mortality rating (Elm Leaf Beetle [13]; 125 ppm) was 0 (0-10 percent). The average mortality rating (Elm Leaf Beetle [13]; 250 ppm) was 0 (0-10 percent), the average mortality rating (Elm Leaf Beetle [13]; 500 ppm) was 3 and the average mortality rating (Armyworm, P. Unipuncta [14]; 125 ppm) was 2. The average mortality rating (Armyworm, P. Unipuncta [14]; 250 ppm) was 4 and the average mortality rating (Armyworm, P. Unipuncta [14]; 500 ppm) was 2.

With O=[N+]([O-])c1cc(C(F)(F)F)cc2[nH]c(C(F)(F)Cl)nc12 [L, 2-chlorodifluoromethyl-4-nitro-6-trifluoromethylbenzimidazole] the mortality rating (House Fly [15]; 50 ppm) was “.5”.

For “mixture of N,N-dimethyl-4-nitro-2,6-bis(trifluoromethyl)thio-1-benzimidazolecarboxamide and N,N-dimethyl-7-nitro-2,5-bis(trifluoromethyl)thio-1-benzimidazolecarboxamide [P]”, the mortality rating (House Fly [1]; 10 ppm) was 4.0, the mortality rating (House Fly [1]; 25 ppm) was 8.5 and the mortality rating (House Fly [1]; 50 ppm) was 9 (91-100). The mortality rating (House Fly [1]; 100 ppm) was 9 (91-100), the mortality rating (House Fly [1]; 250 ppm) was 9 (91-100) and the mortality rating (House Fly [1]; 500 ppm) was 9 (91-100). The mortality rating (House Fly [1]; 1000 ppm) was 9 (91-100), the mortality rating (House Fly [15]; 50 ppm) was 0 (0-10) and the mortality rating (House Fly [15]; 100 ppm) was 3 (31-40). The mortality rating (House Fly [15]; 250 ppm) was 7 (71-80) and the mortality rating (House Fly [15]; 500 ppm) was 9 (91-100).

“mixture of benzyl 2,6-bis(trifluoromethyl)-4-nitro-1-benzimidazolecarboxylate and benzyl 2,5-bis(trifluoromethyl)-7-nitro-1-benzimidazolecarboxylate” was tested, and the mortality rating (House Fly [1]; 10 ppm) was 0 (0-10), the mortality rating (House Fly [1]; 25 ppm) was 0 (0-10) and the mortality rating (House Fly [1]; 50 ppm) was 4 (41-50). For the same compound, the mortality rating (House Fly [1]; 100 ppm) was 5.5, the mortality rating (House Fly [1]; 250 ppm) was 9 (91-100) and the mortality rating (House Fly [1]; 500 ppm) was 9 (91-100). The mortality rating (House Fly [1]; 1000 ppm) was 9 (91-100), the mortality rating (House Fly [15]; 250 ppm) was 0 (0-10) and the mortality rating (House Fly [15]; 500 ppm) was 4 (41-50). The mortality rating (House Fly [15]; 1000 ppm) was 9 (91-100).

With “mixture of methyl 2,6-bis(trifluoromethyl)-4-nitro-1-benzimidazolecarboxylate and methyl 2,5-bis(trifluoromethyl)-7-nitro-1-benzimidazolecarboxylate” the mortality rating (House Fly [1]; 10 ppm) was 0 (0-10), the mortality rating (House Fly [1]; 25 ppm) was 0 (0-10) and the mortality rating (House Fly [1]; 50 ppm) was 9 (91-100). For the same compound, the mortality rating (House Fly [1]; 100 ppm) was 9 (91-100), the mortality rating (House Fly [1]; 250 ppm) was 9 (91-100) and the mortality rating (House Fly [1]; 500 ppm) was 9 (91-100). The mortality rating (House Fly [1]; 1000 ppm) was 9 (91-100), the mortality rating (House Fly [15]; 250 ppm) was 2 (21-30) and the mortality rating (House Fly [15]; 500 ppm) was 5.5. For the same compound, the mortality rating (House Fly [15]; 1000 ppm) was 8.5, the insect mortality rating (Picnic Beetle [2]) was 9 (91-100 percent mortality) and the insect mortality rating (Milkweed Beetle) was 9 (91-100 percent mortality). The insect mortality rating (Picnic Beetle [4]) was 9 (91-100 percent mortality).

In the case of “mixture of phenyl 2,6-bis(trifluoromethyl)-4-nitro-1-benzimidazolecarboxylate and phenyl 2,5-bis(trifluoromethyl)-1-benzimidazolecarboxylate”, the mortality rating (House Fly [1]; 10 ppm) is reported as 3 (31-40), the mortality rating (House Fly [1]; 25 ppm) is reported as 7 (71-80) and the mortality rating (House Fly [1]; 50 ppm) is reported as 7 (71-80). For the same compound, the mortality rating (House Fly [1]; 100 ppm) was 9 (91-100), the mortality rating (House Fly [1]; 250 ppm) was 9 (91-100) and the mortality rating (House Fly [1]; 500 ppm) was 9 (91-100). The mortality rating (House Fly [1]; 1000 ppm) was 9 (91-100), the mortality rating (House Fly [15]; 100 ppm) was 0 (0-10) and the mortality rating (House Fly [15]; 1000 ppm) was 9 (91-100).

Source: US4122184A, “Benzimidazole insecticides” (priority 1977, dated 1978)
